Measured values published in patent US4360462A (priority 1977, dated 1982).
Converted amounts (≈) assume the structure as drawn. Like-named read-outs stand apart in the source and are kept apart here.

How the values were obtained:
[1] = test system: Bacillus cereus; experiment: Antimicrobial activity, paper disc method; assay type: cell-based; settings: 0.02 ml of 300 μg/ml solution, trypticase-soy agar
Procedure: (§1) With trypticase-soy agar (BBL) as an assay medium, the inhibitory concentrations against the microorganisms named below were investigated by the paper disc method. Thus, filter-paper discs (Toyo Seisakusho, thin-type, 8 mm dia.) each impregnated with 0.02 ml of a 300 μg/ml solution of C-15003 P-3, P-3' or P-4 were placed on plates respectively inoculated with the microorganisms named below to investigate the minimal inhibitory concentrations.

[2] = test system: Bacillus subtilis; experiment: Antimicrobial activity, paper disc method; assay type: cell-based; settings: 0.02 ml of 300 μg/ml solution, trypticase-soy agar
Procedure: as §1

[3] = test system: Escherichia coli; experiment: Antimicrobial activity, paper disc method; assay type: cell-based; settings: 0.02 ml of 300 μg/ml solution, trypticase-soy agar
Procedure: as §1

[4] = test system: Klebsiella pneumoniae; experiment: Antimicrobial activity, paper disc method; assay type: cell-based; settings: 0.02 ml of 300 μg/ml solution, trypticase-soy agar
Procedure: as §1

[5] = test system: Mycobacterium avium; experiment: Antimicrobial activity, paper disc method; assay type: cell-based; settings: 0.02 ml of 300 μg/ml solution, trypticase-soy agar
Procedure: as §1

[6] = test system: Proteus mirabilis; experiment: Antimicrobial activity, paper disc method; assay type: cell-based; settings: 0.02 ml of 300 μg/ml solution, trypticase-soy agar
Procedure: as §1

[7] = test system: Proteus vulgaris; experiment: Antimicrobial activity, paper disc method; assay type: cell-based; settings: 0.02 ml of 300 μg/ml solution, trypticase-soy agar
Procedure: as §1

[8] = test system: Pseudomonas aeruginosa; experiment: Antimicrobial activity, paper disc method; assay type: cell-based; settings: 0.02 ml of 300 μg/ml solution, trypticase-soy agar
Procedure: as §1

[9] = test system: Serratia marcescens; experiment: Antimicrobial activity, paper disc method; assay type: cell-based; settings: 0.02 ml of 300 μg/ml solution, trypticase-soy agar
Procedure: as §1

[10] = test system: Staphylococcus aureus; experiment: Antimicrobial activity, paper disc method; assay type: cell-based; settings: 0.02 ml of 300 μg/ml solution, trypticase-soy agar
Procedure: as §1

[11] = test system: Talaromyces avellaneus; experiment: Growth inhibition on agar plates; assay type: cell-based; settings: Hamigera avellanea, pH 7.0, read-out: minimal inhibitory concentration
Procedure: (§2) On the other hand, with agar plates containing the assay medium [3.5 g disodium hydrogen phosphate, 0.5 g monopotassium dihydrogen phosphate, 5 g yeast extract (Difco), 10 g glucose, 15 g agar, 1000 ml distilled water, pH 7.0], the growth inhibition against Talaromyces avellaneus was assayed. In this assay, the minimal inhibitory concentrations were 3 μg/ml for C-15003 P-3 and P-3', and 1.5 μg/ml for C-15003 P-4. Furthermore, the wild strain of Tetrahymena pyriformis W as an assay organism was cultivated on an assay medium [composed of 20 g Proteose-peptone (Difco), 1 g yeast extract, 2 g glucose, 1000 ml distilled water and 10 ml 1 M-phosphate buffer pH 7.0] at 28° C. for 44 to 48 hours and the growth inhibitory activity of the antibiotic compounds against this particular microorganism was determined by the serial dilution method. Growth inhibition occurred at 1 μg/ml for C-15003 P-3 and P-3', and at 0.5 μg/ml for C-15003 P-4.

[12] = test system: Tetrahymena pyriformis W; experiment: Growth inhibitory activity, serial dilution method; assay type: cell-based; settings: 28° C., 44 to 48 hours, pH 7.0, read-out: growth inhibition concentration
Procedure: The potency of the antibiotic was assayed with Tetrahymena pyriformis W as an assay organism.
as §2

[13] = test system: P388 leukemia; experiment: Antitumour activity, P388 leukemia in mice; assay type: in vivo, mouse; settings: 0.00625 mg/kg/day, intraperitoneally for 9 consecutive days; 1×10^6 cells/animal, intraperitoneally transplanted
[14] = Acute toxicity test in mice; settings: mouse, in vivo, ip, intraperitoneal injection
[15] = in chloroform, ethyl acetate, acetone, ethanol, methanol, pyridine, tetrahydrofuran & dimethylsulfoxide

Compound	antimicrobial activity (minimal inhibitory concentration) [1]	antimicrobial activity (minimal inhibitory concentration) [2]	antimicrobial activity (minimal inhibitory concentration) [3]	antimicrobial activity (minimal inhibitory concentration) [4]	antimicrobial activity (minimal inhibitory concentration) [5]	antimicrobial activity (minimal inhibitory concentration) [6]	antimicrobial activity (minimal inhibitory concentration) [7]	antimicrobial activity (minimal inhibitory concentration) [8]	antimicrobial activity (minimal inhibitory concentration) [9]	antimicrobial activity (minimal inhibitory concentration) [10]	MIC [11] [µg/mL]	MIC [12] [µg/mL]	life span-extending ratio [13] [%]	LD50 [14] [mg/kg]	Solubility (in benzene & ether)	Solubility [15]	Solubility (in petr. ether, hexane & water)
COc1cc2cc(c1Cl)N(C)C(=O)CC(OC(=O)C(C)C)C1(C)OC1C(C)C1CC(O)(NC(=O)O1)C(OC)C=CC=C(C)C2 (stereo not shown) [C-15003 P-3]	no activity	no activity	no activity	no activity	no activity	no activity	no activity	no activity	no activity	no activity	3 (≈ 4.72 µM)	1 (≈ 1.57 µM)	200	> 0.313	Sparingly soluble	Soluble	Insoluble
COc1cc2cc(c1Cl)N(C)C(=O)CC(OC(=O)CC(C)C)C1(C)OC1C(C)C1CC(O)(NC(=O)O1)C(OC)C=CC=C(C)C2 (stereo not shown) [C-15003 P-4]	no activity	no activity	no activity	no activity	no activity	no activity	no activity	no activity	no activity	no activity	1.5 (≈ 2.31 µM)	0.5 (≈ 0.77 µM)	200	> 0.313	Sparingly soluble	Soluble	Insoluble
